Laboratory results published in patent US6716987B1, “Derivatives of benzofuran or benzodioxazole compounds” (Kyowa Hakko Kogyo Co., Ltd., priority 1995, dated 2004).

Experiments:
[1] = test system: Sunkus murinus; experiment: Effect on vomiting induction in male Sunkus murinus; type: in vivo; settings: dose 10 mg/kg i.p., observed for 1 hour after administration
Method: Five to fifteen male Sunkus murinus per group weighing approximately 60 g were used for the test. According to the method of Matsumoto, et. al. [Japan J. Pharmacol., 48, 303 (1988)], Sunkus murinus were placed separately into metal wire cages (width 15 cm×length 21 cm×height 15 cm). Each sample of the test compound was suspened in a 0.5% Tween 80 physiological saline solution and administered intraperitoneally (i.p.) at a dose of 10 ml/kg. […] In the group that was administered the test-compound, the results are represented as the number of vomiting animals/the number of experimental animals. Compound RA was employed as a reference compound.

[2] = test system: TNF α production; experiment: Suppression effect on TNF α production in the LPS induced mouse sepsis model; type: in vivo; settings: serum TNF α
Method: Lipopolysaccharide (LPS, DIFCO Laboratories) was dissolved in physiological saline to make a final concentration of 0.2 mg/ml. The resulting solution was administered intravenously to the tail of Balb/c male mice (7-week-old) (Charls River Japan Co.) at 200 μl per 20 g body weight of 5 to 6 mice/group. One hour after administration, blood was drawn from a fundus oculi vein of each mouse to obtain serum. […] The concentration of TNF a in serum was measured by enzyme-linked immunosorbent assay (ELISA method) as follows: […] anti-mouse TNF a monoclonal antibody (Pharmingen Inc.) diluted with a phosphate buffer solution (PBS) was added to a 96-well microtiter plate (Nalge Nunc International immuno-plate <MaxiSorp=) at […]; allowed to stand at 4° C. for 12 hours for coating; mixed with […] of a phosphate buffer solution containing 1% bovine serum albumin (BSA) (1% BSA-PBS); allowed to stand at room temperature for 1 hour to block the non-specific binding; washed with phosphate buffer solution; mixed with […] of the subject serum diluted two-fold with 1% BSA-PBS; and allowed to stand at room temperature for 2 hours. Furthermore, recombinant mouse TNF α (Genzyme Corp.) diluted with 1% BSA-PBS was similarly treated and used as a standard substance. These plates were washed three times with PBS (0.05% Tween-PBS) containing 0.05% polyoxyethylenesorbitan monolaurate (Tween 20, Wako Pure Chemical Industries, Ltd.), mixed with […] of biotin-labelled anti-mouse TNF α monoclonal antibody (Method A: Pharmingen Inc.; Method B: Genzyme Corp) diluted with 1% BSA-PBS to make a concentration of 1 mg/ml, allowed to stand at room temperature for 1 hour, washed three times with 0.05% Tween-PBS, mixed with […] of horseradish peroxidase avidin D (Vector Laboratories Inc.) diluted four-thousand-fold with 1% BSA-PBS, and allowed to stand at room temperature for 30 min. Finally, these plates were washed three times with 0.05% Tween-PBS, and mixed with […] of 3,3′,5,5′-tetramethylbenzidine. After color development, the reaction was stopped by adding […] of 10% sulfuric acid solution, and then, the absorbance at 450 nm was measured. The concentration of TNF α in serum was calculated from a calibration curve.
The rate of suppression of each test compound on TNF α production was obtained from the following formula:
Suppression rate=(A−B)/A,
wherein A is the TNF α concentration of the control group and B is the TNF α concentration of the experimental group.
In the above formula, the TNF α concentration of the control group is defined as the value obtained in the absence of the test compound (0.5% methyl cellulose solution alone).
Employed as the reference compounds were 7-methoxy-4-[1-oxo-2-(4-pyridyl)ethyl]-spiro[2,3-dihydrobenzofuran-2,1′-cyclopentane] hydrochloride (disclosed in Example 100 of Japanese Patent Laid-Open No. 8-836624 and hereinafter referred to as Compound RA) having the formula (RA) and 2-benzoyl-4-(3,5-dichloro-4-pyridyl)aminocarbonyl)-7-methoxybenzofuran (disclosed in Example 35 of Japanese Patent Laid-Open No. 8-534708 and hereinafter referred to as Compound RB) having the formula (RB): [drawing 660]

[3] = Method B, dose 30 mg/kg orally 90 min before LPS
[4] = Method A, dose 10 mg/kg orally 90 min before LPS

Row | Compound | Number of vomiting animals/Number of experimental animals [1] | Suppression rate (%) [2, 3] | Suppression rate (%) [2, 4] | melting point
1 | COc1ccc(C(=O)Nc2c(Cl)cncc2Cl)c2cc(C(=O)CCCN3CCN(C)CC3)oc12 [Compound 214, N-(3,5-dichloropyridin-4-yl)-2-[4-(4-methyl-1-piperazinyl)]-butyryl-7-methoxybenzofuran-4-carboxamide] | 3/5 | 65% | – | –
2 | COc1ccc(C(=O)Nc2c(Cl)cncc2Cl)c2cc(C(=O)N3CCN(C)CC3)oc12 [Compound 201, 4-(3,5-dichloro-4-pyridyl)aminocarbonyl-7-methoxy-2-(4-methyl-1-piperazinyl)carbonylbenzofuran] | 0/5 | – | 70% | –
3 | COc1ccc(C(=O)Nc2c(Cl)cncc2Cl)c2cc(C(=O)CCCN3CCOCC3)oc12 [Compound 213, N-(3,5-Dichloropyridin-4-yl)-2-(4-morpholino)butyryl-7methoxybenzofuran-4-carboxamide] | 0/5 | 65% | – | –
4 | 7-(4-carboxy-4-pyridyl)-4-methoxy-spiro[1,3-benzodioxole-2,1=-cyclopentane] [Compound 203] | 1/5 | – | 100% | –
5 | COc1ccc(C(=O)Nc2c(Cl)cncc2Cl)c2cc(C(=O)N3CCN(CCO)CC3)oc12 [Compound 202, 4-(3,5-dichloro-4-pyridyl)aminocarbonyl-7-methoxy-2-[4-(2-hydroxyethyl)-1-piperazinyl]carbonylbenzofuran] | 0/5 | – | 92% | –
6 | COc1ccc(C(=O)Cc2c(Cl)cncc2Cl)c2cc(C(=O)N3CCN(C)CC3)oc12 [Compound 206] | 0/5 | 65% | – | –
7 | COc1ccc(-c2ccc(C(=O)O)cc2)c2c1OC(C)(C)O2 [Compound 204, 7-(4-carboxyphenyl)-2,2-dimethyl-4-methoxy-1,3-benzodioxole] | 2/5 | – | 79% | 237 to 239 °C
8 | COc1ccc(C(=O)Nc2c(Cl)cncc2Cl)c2cc(C(=O)c3ccccc3)oc12 [RB, reference compound] | 0/5 | 30% | 48% | –
9 | COc1ccc(-c2cnccc2C)c2c1OC1(CCCC1)O2 [Compound 205, 4-methoxy-7-(4-methyl-3-pyridyl)-spiro[1,3-benzodioxole-2,1′-cyclopentane]] | 0/5 | – | 79% | –
10 | COc1ccc(C(=O)Cc2ccncc2)c2c1OC1(CCCC1)C2.Cl [RA, 7-methoxy-4-[1-oxo-2-(4-pyridyl)ethyl]-spiro[2,3-dihydrobenzofuran-2,1′-cyclopentane] hydrochloride, reference compound] | 5/5 | 81% | 81% | –
11 | COc1ccc(C(=O)Cc2c(Cl)cncc2Cl)c2cc(C(=O)N3CCN(CCO)CC3)oc12 [Compound 207, 4-[2-(3,5-Dichloro-4-pyridyl)-1-oxoethyl]-2-[4-(2-hydroxyethyl)-1-piperazinylcarbonyl]-7-methoxybenzofuran] | 0/5 | 65% | – | –
